Measurements reported in ChEMBL document CHEMBL6103575, “Design, synthesis and evaluation of (E)-1-(4-(2-(1H-pyrazol-5-yl)vinyl)phenyl) derivatives as next generation selective RET inhibitors overcoming RET solvent front mutations (G810C/R)” (Eur J Med Chem, 2025).

What was measured:
[1] = Induction of apoptosis in mouse BaF3 cells harboring CCDC6-RET G810R mutant assessed as early apoptotic cells at 300 nM incubated for 48 hrs by Annexin V-PE staining based flow cytometry analysis (Rvb =10 %); assay type: functional
[2] = Induction of apoptosis in mouse BaF3 cells harboring CCDC6-RET G810R mutant assessed as necrotic cells at 300 nM incubated for 48 hrs by Annexin V-PE staining based flow cytometry analysis (Rvb =0.30%); assay type: functional
[3] = Induction of cell cycle arrest in mouse BaF3 cells harboring CCDC6-RET G810R mutant assessed as accumulation of cells at S phase at 100 nM incubated for 24 hrs by propidium iodide staining based analysis (reference value: 13.66%); assay type: functional
BaF3 [4] = test: Antiproliferative activity against mouse BaF3 cells harbouring CCDC6-RET assessed as inhibition of cell proliferation incubated for 72 hrs by CCK-8 assay; assay type: functional, cell-based; conditions: BaF3, 72 h
BaF3 [5] = test: Inhibition of RET phosphorylation in mouse BaF3 cells harboring CCDC6-RET G810C mutant incubated for 12 hrs by Western blotting analysis; assay type: cell-based; conditions: dose <= 300.0 nM
[6] = Induction of cell cycle arrest in mouse BaF3 cells harboring CCDC6-RET G810R mutant assessed as accumulation of cells at S phase at 30 nM incubated for 24 hrs by propidium iodide staining based analysis (reference value: 13.66%); assay type: functional
[7] = Induction of cell cycle arrest in mouse BaF3 cells harboring CCDC6-RET G810C mutant assessed as accumulation of cells at G0/G1 phase at 30 nM incubated for 24 hrs by propidium iodide staining based analysis (reference value: 52.11%); assay type: functional
[8] = Induction of cell cycle arrest in mouse BaF3 cells harboring CCDC6-RET G810C mutant assessed as accumulation of cells at S phase at 10 nM incubated for 24 hrs by propidium iodide staining based analysis (reference value: 12.47%); assay type: functional
BaF3 [9] = test: Inhibition of SHC phosphorylation in mouse BaF3 cells harboring CCDC6-RET G810C mutant incubated for 12 hrs by Western blotting analysis; assay type: cell-based; conditions: dose <= 300.0 nM
[10] = target: Platelet-derived growth factor receptor alpha (Homo sapiens, UniProt P16234); test: Inhibition of PDGFRalpha (unknown origin) at 1 uM relative to control
[11] = Induction of apoptosis in mouse BaF3 cells harboring CCDC6-RET G810C mutant assessed as viable cells at 100 nM incubated for 48 hrs by Annexin V-PE staining based flow cytometry analysis (Rvb =86.47%); assay type: functional; conditions: read-out: Activity
[12] = system: Proto-oncogene tyrosine-protein kinase receptor Ret (Homo sapiens), P07949 [G810R]; test: Inhibition of RET (unknown origin) G810R mutant at 1 uM relative to control
[13] = Induction of cell cycle arrest in mouse BaF3 cells harboring CCDC6-RET G810C mutant assessed as accumulation of cells at G0/G1 phase at 100 nM incubated for 24 hrs by propidium iodide staining based analysis (reference value: 52.11%); assay type: functional
[14] = Induction of apoptosis in mouse BaF3 cells harboring CCDC6-RET assessed as necrotic cells at 30 nM incubated for 48 hrs by Annexin V-PE staining based flow cytometry analysis (Rvb =0.19%); assay type: functional
[15] = Induction of apoptosis in mouse BaF3 cells harboring CCDC6-RET G810R mutant assessed as necrotic cells at 30 nM incubated for 48 hrs by Annexin V-PE staining based flow cytometry analysis (Rvb =0.30%); assay type: functional
[16] = target: T1, Proto-oncogene tyrosine-protein kinase receptor Ret (Homo sapiens, UniProt P07949); test: Inhibition of RET (unknown origin) at 1 uM relative to control
[17] = Induction of apoptosis in mouse BaF3 cells harboring CCDC6-RET assessed as necrotic cells at 10 nM incubated for 48 hrs by Annexin V-PE staining based flow cytometry analysis (Rvb =0.19%); assay type: functional
BaF3 [18] = test: Antiproliferative activity against mouse BaF3 cells harbouring CCDC6-RET G810R mutant assessed as inhibition of cell proliferation incubated for 72 hrs by CCK-8 assay; assay type: functional, cell-based; conditions: BaF3, 72 h
[19] = Induction of cell cycle arrest in mouse BaF3 cells harboring CCDC6-RET G810R mutant assessed as accumulation of cells at S phase at 300 nM incubated for 24 hrs by propidium iodide staining based analysis (reference value: 13.66%); assay type: functional
[20] = target: T1, Proto-oncogene tyrosine-protein kinase receptor Ret; test: Inhibition of RET (unknown origin)
[21] = Induction of apoptosis in mouse BaF3 cells harboring CCDC6-RET G810R mutant assessed as late apoptotic cells at 300 nM incubated for 48 hrs by Annexin V-PE staining based flow cytometry analysis (Rvb =3.21%); assay type: functional
[22] = system: Proto-oncogene tyrosine-protein kinase receptor Ret (Homo sapiens), P07949 [G810C]; test: Inhibition of RET (unknown origin) G810C mutant at 1 uM relative to control
[23] = Induction of cell cycle arrest in mouse BaF3 cells harboring CCDC6-RET G810R mutant assessed as accumulation of cells at G0/G1 phase at 30 nM incubated for 24 hrs by propidium iodide staining based analysis (reference value: 52.63%); assay type: functional
[24] = Induction of apoptosis in mouse BaF3 cells harboring CCDC6-RET G810C mutant assessed as early apoptotic cells at 100 nM incubated for 48 hrs by Annexin V-PE staining based flow cytometry analysis (Rvb =8.74%); assay type: functional
[25] = Induction of apoptosis in mouse BaF3 cells harboring CCDC6-RET assessed as necrotic cells at 300 nM incubated for 48 hrs by Annexin V-PE staining based flow cytometry analysis (Rvb =0.19%); assay type: functional
[26] = Induction of apoptosis in mouse BaF3 cells harboring CCDC6-RET G810C mutant assessed as necrotic cells at 100 nM incubated for 48 hrs by Annexin V-PE staining based flow cytometry analysis (Rvb =0.48%); assay type: functional
[27] = Induction of cell cycle arrest in mouse BaF3 cells harboring CCDC6-RET G810R mutant assessed as accumulation of cells at S phase at 10 nM incubated for 24 hrs by propidium iodide staining based analysis (reference value: 13.66%); assay type: functional
[28] = Induction of cell cycle arrest in mouse BaF3 cells harboring CCDC6-RET G810C mutant assessed as accumulation of cells at G0/G1 phase at 300 nM incubated for 24 hrs by propidium iodide staining based analysis (reference value: 52.11%); assay type: functional
[29] = Induction of apoptosis in mouse BaF3 cells harboring CCDC6-RET assessed as viable cells at 100 nM incubated for 48 hrs by Annexin V-PE staining based flow cytometry analysis (Rvb =91.16%); assay type: functional; conditions: read-out: Activity
[30] = Induction of apoptosis in mouse BaF3 cells harboring CCDC6-RET G810C mutant assessed as viable cells at 30 nM incubated for 48 hrs by Annexin V-PE staining based flow cytometry analysis (Rvb =86.47%); assay type: functional; conditions: read-out: Activity
[31] = target: Proto-oncogene tyrosine-protein kinase receptor Ret (Homo sapiens, UniProt P07949, G810R); test: Inhibition of RET (unknown origin) G810R mutant
[32] = target: Proto-oncogene tyrosine-protein kinase receptor Ret (Homo sapiens, UniProt P07949, G810C); test: Inhibition of RET (unknown origin) G810C mutant
Sequence of Proto-oncogene tyrosine-protein kinase receptor Ret (Homo sapiens, UniProt P07949, G810C) (P07949 29-1114 G810C limits assumed): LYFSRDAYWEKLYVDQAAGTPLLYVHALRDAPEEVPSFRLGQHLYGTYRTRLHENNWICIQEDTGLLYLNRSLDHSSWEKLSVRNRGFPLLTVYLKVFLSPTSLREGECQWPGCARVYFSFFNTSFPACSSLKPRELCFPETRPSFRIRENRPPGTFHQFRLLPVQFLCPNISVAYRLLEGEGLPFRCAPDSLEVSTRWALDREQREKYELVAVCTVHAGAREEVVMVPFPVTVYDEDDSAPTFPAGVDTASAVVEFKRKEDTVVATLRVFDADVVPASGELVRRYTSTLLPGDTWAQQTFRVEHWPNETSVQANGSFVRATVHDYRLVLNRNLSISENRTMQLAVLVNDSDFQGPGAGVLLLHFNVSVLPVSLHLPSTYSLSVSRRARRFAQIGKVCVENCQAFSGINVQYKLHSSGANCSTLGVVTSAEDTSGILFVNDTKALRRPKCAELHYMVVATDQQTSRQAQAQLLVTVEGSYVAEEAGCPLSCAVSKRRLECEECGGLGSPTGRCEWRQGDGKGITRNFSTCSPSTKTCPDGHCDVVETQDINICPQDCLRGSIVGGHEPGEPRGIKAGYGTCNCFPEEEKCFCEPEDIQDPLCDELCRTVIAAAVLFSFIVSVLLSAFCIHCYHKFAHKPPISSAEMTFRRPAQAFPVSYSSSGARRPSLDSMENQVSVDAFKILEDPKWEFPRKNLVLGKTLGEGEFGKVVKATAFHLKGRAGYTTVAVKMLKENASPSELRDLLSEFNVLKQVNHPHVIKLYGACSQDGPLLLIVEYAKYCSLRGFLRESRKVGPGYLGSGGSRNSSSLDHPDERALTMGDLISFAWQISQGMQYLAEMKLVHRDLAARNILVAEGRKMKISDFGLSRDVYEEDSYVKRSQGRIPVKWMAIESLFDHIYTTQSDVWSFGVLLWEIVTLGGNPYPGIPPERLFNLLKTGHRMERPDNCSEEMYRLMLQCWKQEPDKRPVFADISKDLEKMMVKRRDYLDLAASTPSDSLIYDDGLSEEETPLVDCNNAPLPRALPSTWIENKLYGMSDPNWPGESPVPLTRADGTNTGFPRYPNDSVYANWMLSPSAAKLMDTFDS

T1 sequence (P07949 whole entry): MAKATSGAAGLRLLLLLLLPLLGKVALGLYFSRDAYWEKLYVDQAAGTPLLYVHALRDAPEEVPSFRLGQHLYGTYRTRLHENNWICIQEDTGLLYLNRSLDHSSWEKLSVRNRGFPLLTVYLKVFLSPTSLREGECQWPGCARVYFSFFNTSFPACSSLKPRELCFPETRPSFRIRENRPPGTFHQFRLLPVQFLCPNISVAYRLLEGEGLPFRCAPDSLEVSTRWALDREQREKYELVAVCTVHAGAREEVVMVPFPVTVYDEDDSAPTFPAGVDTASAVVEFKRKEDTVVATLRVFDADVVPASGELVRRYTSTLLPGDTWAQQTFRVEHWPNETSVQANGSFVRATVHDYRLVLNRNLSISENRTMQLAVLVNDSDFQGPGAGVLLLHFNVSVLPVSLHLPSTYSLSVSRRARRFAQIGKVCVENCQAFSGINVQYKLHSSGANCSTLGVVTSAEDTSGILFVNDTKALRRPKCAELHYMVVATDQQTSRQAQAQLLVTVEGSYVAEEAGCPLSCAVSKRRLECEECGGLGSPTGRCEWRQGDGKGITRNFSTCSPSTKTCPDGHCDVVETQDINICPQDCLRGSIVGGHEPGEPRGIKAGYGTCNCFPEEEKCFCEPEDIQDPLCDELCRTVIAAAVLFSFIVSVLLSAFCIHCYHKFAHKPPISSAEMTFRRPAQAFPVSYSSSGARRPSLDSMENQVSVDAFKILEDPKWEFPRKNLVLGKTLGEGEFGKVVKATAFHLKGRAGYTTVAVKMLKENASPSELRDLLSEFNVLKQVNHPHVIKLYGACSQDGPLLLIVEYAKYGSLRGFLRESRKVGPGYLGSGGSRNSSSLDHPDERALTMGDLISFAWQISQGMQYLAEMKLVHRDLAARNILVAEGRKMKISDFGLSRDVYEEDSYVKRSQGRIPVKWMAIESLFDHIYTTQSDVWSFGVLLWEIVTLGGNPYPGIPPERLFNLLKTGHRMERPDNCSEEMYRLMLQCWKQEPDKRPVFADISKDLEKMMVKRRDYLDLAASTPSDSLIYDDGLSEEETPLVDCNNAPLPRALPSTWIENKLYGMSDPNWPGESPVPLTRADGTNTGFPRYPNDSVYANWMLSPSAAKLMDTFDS
Sequence of Proto-oncogene tyrosine-protein kinase receptor Ret (Homo sapiens, UniProt P07949, G810R) (P07949 29-1114 G810R limits assumed): as the sequence (P07949 29-1114 G810C limits assumed) above, with C782R counted along it
Sequence of Proto-oncogene tyrosine-protein kinase receptor Ret (Homo sapiens), P07949 [G810R] (P07949 whole entry G810R): as the sequence (P07949 whole entry) above, with G810R counted along it
Sequence of Platelet-derived growth factor receptor alpha (P16234 whole entry): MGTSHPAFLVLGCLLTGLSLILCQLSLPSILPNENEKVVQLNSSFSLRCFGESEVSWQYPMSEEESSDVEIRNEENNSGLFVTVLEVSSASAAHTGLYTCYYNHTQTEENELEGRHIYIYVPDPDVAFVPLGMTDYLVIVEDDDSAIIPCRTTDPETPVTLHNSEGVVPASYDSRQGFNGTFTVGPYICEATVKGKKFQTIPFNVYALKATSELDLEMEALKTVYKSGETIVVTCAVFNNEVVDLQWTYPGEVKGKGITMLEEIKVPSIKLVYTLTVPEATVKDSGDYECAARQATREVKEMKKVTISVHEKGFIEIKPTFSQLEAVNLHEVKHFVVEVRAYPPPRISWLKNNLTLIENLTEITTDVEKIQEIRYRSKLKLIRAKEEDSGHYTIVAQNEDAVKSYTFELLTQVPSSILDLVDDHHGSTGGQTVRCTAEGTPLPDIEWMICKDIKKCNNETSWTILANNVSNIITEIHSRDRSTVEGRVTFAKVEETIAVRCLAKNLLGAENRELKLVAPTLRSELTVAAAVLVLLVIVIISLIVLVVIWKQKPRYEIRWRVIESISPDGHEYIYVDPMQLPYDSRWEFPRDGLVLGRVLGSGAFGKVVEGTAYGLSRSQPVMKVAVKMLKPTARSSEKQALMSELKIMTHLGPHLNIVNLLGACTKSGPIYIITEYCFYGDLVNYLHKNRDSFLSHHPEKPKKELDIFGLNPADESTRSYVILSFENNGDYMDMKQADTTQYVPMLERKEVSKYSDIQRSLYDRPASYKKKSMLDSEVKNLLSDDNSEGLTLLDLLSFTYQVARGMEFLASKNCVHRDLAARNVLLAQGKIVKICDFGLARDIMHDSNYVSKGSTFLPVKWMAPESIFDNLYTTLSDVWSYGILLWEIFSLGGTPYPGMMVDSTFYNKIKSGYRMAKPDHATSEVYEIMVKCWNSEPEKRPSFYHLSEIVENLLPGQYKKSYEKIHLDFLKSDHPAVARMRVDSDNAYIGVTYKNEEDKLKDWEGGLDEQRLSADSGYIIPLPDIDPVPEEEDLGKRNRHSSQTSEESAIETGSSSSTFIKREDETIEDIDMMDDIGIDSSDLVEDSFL
Sequence of Proto-oncogene tyrosine-protein kinase receptor Ret (Homo sapiens), P07949 [G810C] (P07949 whole entry G810C): as the sequence (P07949 whole entry) above, with G810C counted along it

With COc1cncc(-c2cn[nH]c2/C=C/c2ccc(NC(=O)Nc3cc(C(C)(C)C(F)(F)F)on3)c(Cl)c2)c1 the Activity [1] was 0.29%, the Activity [2] was 0.07% and the Activity [3] was 12.78%. The IC50 (BaF3 [4]) was 13 nM, the inhibition (BaF3 [5]) was “Dose-dependent-effect” and the Activity [6] was 14.08%. The Activity [7] was 57.08%, the Activity [8] was 12.31% and the inhibition (BaF3 [9]) was “Dose-dependent-effect”. It also gave an inhibition [10] of 101%, a viability at 0.1 µM [11] of 60% and an inhibition [12] of 74%. It also gave an Activity [13] of 66.6%, an Activity [14] of 0.03% and an Activity [15] of 0.14%. For the same compound, the inhibition [16] was 98.3%, the Activity [17] was 0.14% and the IC50 (BaF3 [18]) was 28.4 nM. The Activity [19] was 4.8%, the IC50 [20] was 4.2 nM and the Activity [21] was 9.06%. The inhibition [22] was 102%, the Activity [23] was 53.02% and the Activity [24] was 37.84%. It also gave an Activity [25] of 0.04%, an Activity [26] of 0.24% and an Activity [27] of 13.31%. For the same compound, the Activity [28] was 72.47%, the viability at 0.1 µM [29] was 24% and the viability at 0.03 µM [30] was 86.2%. For the same compound, the IC50 [31] was 32.4 nM and the IC50 [32] was 7.1 nM.
